The record followed here is PMC9571303, “Development of Clinical Weekly-Dose Teriparatide Acetate Encapsulated Dissolving Microneedle Patch for Efficient Treatment of Osteoporosis” (Polymers, 2022).

Molecules are shown by their SMILES. Values joined by “and” are separate entries in the source; they are usually repeats but may differ in a detail not shown here. Equal entries are not always repeated. Where two headings read alike, the source gives them in different places.

Data set [1] in a line: TA activity after drying in CL-mimic conditions (RP-HPLC). Conditions: droplets dried at 4 °C under vacuum (CL-mimic), reconstituted in PBS, RP-HPLC C18, UV, mean ± SD, n = 15. The class given is physicochemical. On the procedure:
TA activity was assessed via reverse-phase high-performance liquid chromatography (RP-HPLC) under CL-mimic conditions, in which TA undergoes a drying process from droplets of matric polymer with TA. TA polymer solutions were dispensed as droplets on a polyurethane film (SLA, Gumi, Korea) using a robotic dispenser (ML-5000X; Musashi Engineering, Inc., Tokyo, Japan) and dried at 4 °C under vacuum to mimic the conditions of the CL. Dried droplets were then dissolved in phosphate-buffered saline (PBS; Life Technologies, Carlsbad, CA, USA) for reconstitution and analyzed via RP-HPLC using a separation module (Waters e2695; Waters Corp., Milford, MA, USA) and a dual λ absorbance detector (Waters 2487′ Waters Corp., Milford, MA, USA). A C18 column (COSMOSIL; 5 μm, 150 × 4.6 mm) was used for HPLC. Mobile phase A was prepared as 10% acetonitrile (Sigma-Aldrich, St. Louis, MO, USA) and 90% 0.2 M sodium sulfate (Sigma-Aldrich, St. Louis, MO, USA) and phase B was prepared as 50% acetonitrile and 50% of 0.2 M sodium sulfate with a flow rate of 1.3 mL/min and detection wavelength of […].

Data set [2] can be described thus: In vivo pharmacokinetic analysis after TA delivery. Also on record: species or system Sprague Dawley rats. The settings on record: SD rats; for half-life: male, Sprague Dawley, rat. On the procedure:
Six-week-old male Sprague Dawley rats (SD rats) were purchased from Young Bio Inc. (Seongnam, Korea) and allowed seven days for acclimation. Three groups of SD rats were used for the pharmacokinetic study. All the dorsal regions of the SD rats were shaved for application of the TA-DMN patches. Group 1 was administered a subcutaneous injection of a formulation containing 60.6 μg of TA into the central part of the back using a 27 G hypodermic needle (Becton Dickinson, Franklin Lakes, NJ, USA), and served as the positive control. Group 2 received one TA-DMN patch containing 61.4 ± 1.3 µg of TA. Group 3 received two TA-DMN patches containing 122.8 ± 2.6 µg of TA. A home-made shooting device was used to apply the TA-DMN patches on the backs of the SD rats, and a dressing (Tegaderm; 3M Health Care, St. Paul, MN, USA) was used to cover the patches. In addition, a self-adherent bandage wrap (Coban; 3M Health Care, St. Paul, MN, USA) was used to secure the patches.
At 0, 0.25, 0.5, 0.75, 1, 2, 3.5, 4, 5, 6, and 24 h after subcutaneous administration of TA in group 1, 100 μL of blood was taken into a Microvette (SARSTEDT; Nümbrecht, Germany) from the saphenous vein, which was exposed after a minor incision of the tail by a surgical blade. Blood samples were collected in the same manner at 0, 0.5, 1, 2, 3.5, 4, 5, 6, and 24 h after TA-DMN patch application in group 2, and at 0, 0.5, 1, 1.5, 3, 4, 5, 6, and 24 h after TA-DMN patch application in group 3. The collected blood was left at room temperature for 30 min and centrifuged using a microcentrifuge (Hanil, Dajeon, Korea) at 1000× g for 10 min to separate the plasma. All separated plasma samples were transferred to 1.5-mL Eppendorf tubes and stored at −70 °C. TA concentrations in rat plasma were determined via enzyme-linked immunosorbent assay (ELISA) using a TA pharmacokinetics ELISA kit (SB-07-043; Somru Bioscience, Charlottetown, PE, Canada) and a microplate reader (Perkin Elmer, Waltham, MA, USA). Based on the determined TA concentrations in rat plasma, the areas under the concentration curve (AUC) were computed using the trapezoid area calculation method, and BA was evaluated to analyze the pharmacokinetic profiles.

Regarding `CC[C@H](C)[C@H](NC(=O)[C@H](CCC(=O)O)NC(=O)[C@H](CO)NC(=O)[C@@H](NC(=O)[C@@H](N)CO)C(C)C)C(=O)N[C@@H](CCC(N)=O)C(=O)N[C@@H](CC(C)C)C(=O)N[C@@H](CCSC)C(=O)N[C@@H](Cc1cnc[nH]1)C(=O)N[C@@H](CC(N)=O)C(=O)N[C@@H](CC(C)C)C(=O)NCC(=O)N[C@@H](CCCCN)C(=O)N[C@@H](Cc1cnc[nH]1)C(=O)N[C@@H](CC(C)C)C(=O)N[C@@H](CC(N)=O)C(=O)N[C@@H](CO)C(=O)N[C@@H](CCSC)C(=O)N[C@@H](CCC(=O)O)C(=O)N[C@@H](CCCN=C(N)N)C(=O)N[C@H](C(=O)N[C@@H](CCC(=O)O)C(=O)N[C@@H](Cc1c[nH]c2ccccc12)C(=O)N[C@@H](CC(C)C)C(=O)N[C@@H](CCCN=C(N)N)C(=O)N[C@@H](CCCCN)C(=O)N[C@@H](CCCCN)C(=O)N[C@@H](CC(C)C)C(=O)N[C@@H](CCC(N)=O)C(=O)N[C@@H](CC(=O)O)C(=O)N[C@H](C(=O)N[C@@H](Cc1cnc[nH]1)C(=O)N[C@@H](CC(N)=O)C(=O)N[C@@H](Cc1ccccc1)C(=O)O)C(C)C)C(C)C` [TA, teriparatide acetate], the “TA activity after drying” value in data set [1] (TA polymer solution (HA) with 10% trehalose) was found to be 75.4 ± 8.3%; in data set [1] (TA polymer solution (HA) without trehalose), 59.0 ± 3.6%. Besides, in data set [2] (Group 1: subcutaneous injection, 60.6 μg TA, plasma ELISA, n = 3), the Tmax is 18 min. The BA in data set [2] (Group 1: subcutaneous injection, 60.6 μg TA, positive control (reference), n = 3) was 100% and 100 ± 10.5%. The half-life in data set [2] (plasma, after all three TA administration methods (SC, one patch, two patches), read-out: half-life t½ of TA in plasma (converted)) is around 48 min; in data set [2] (sc, Group 1: subcutaneous injection, 60.6 μg TA, plasma ELISA, n = 3, read-out: t1/2 (converted)) it was 48 min.
